Reference: the NIST ThermoML archive (doi:10.1016/j.jct.2006.02.005)
Values joined by “and” are separate entries in the source; they are usually repeats but may differ in a detail not shown here. Equal entries are not always repeated.

How the values were obtained:
[1] = Molar enthalpy of transition or fusion
[2] = molar heat capacity at constant pressure; conditions: 101.33 kPa
[3] = for Normal melting temperature: Crystal 1; for Triple point temperature: Crystal 2

NC(CO)(CO)CO [2-amino-2-(hydroxymethyl)-1,3-propanediol]
[1]
Conditions | Molar enthalpy of transition or fusion [kcal/mol]
Crystal 1 | 0.742
Crystal 2 | 8

[2]
Conditions | molar heat capacity at constant pressure
193.15 K, Crystal 2 | 122.47 J/K/mol and 125.13 J/K/mol and 118.14 J/K/mol
198.15 K, Crystal 2 | 123.8 J/K/mol and 126.58 J/K/mol and 119.34 J/K/mol
203.15 K, Crystal 2 | 124.41 J/K/mol and 128.03 J/K/mol and 119.97 J/K/mol
208.15 K, Crystal 2 | 130.34 J/K/mol and 121.62 J/K/mol and 126.22 J/K/mol
213.15 K, Crystal 2 | 128.53 J/K/mol and 132.76 J/K/mol and 124.17 J/K/mol
218.15 K, Crystal 2 | 130.83 J/K/mol and 135.3 J/K/mol and 125.62 J/K/mol
223.15 K, Crystal 2 | 133.13 J/K/mol and 137.12 J/K/mol and 127.31 J/K/mol
228.15 K, Crystal 2 | 135.31 J/K/mol and 138.33 J/K/mol and 129.5 J/K/mol
233.15 K, Crystal 2 | 131.07 J/K/mol and 137.49 J/K/mol and 140.87 J/K/mol
238.15 K, Crystal 2 | 133.61 J/K/mol and 139.67 J/K/mol and 143.78 J/K/mol
243.15 K, Crystal 2 | 139.07 J/K/mol and 142.09 J/K/mol and 145.84 J/K/mol
248.15 K, Crystal 2 | 143.18 J/K/mol and 144.27 J/K/mol and 148.75 J/K/mol
253.15 K, Crystal 2 | 144.76 J/K/mol and 146.7 J/K/mol and 151.05 J/K/mol
258.15 K, Crystal 2 | 146.82 J/K/mol and 149.24 J/K/mol and 153.23 J/K/mol
263.15 K, Crystal 2 | 150.82 J/K/mol and 152.03 J/K/mol and 155.65 J/K/mol
268.15 K, Crystal 2 | 154.81 J/K/mol and 154.69 J/K/mol and 158.07 J/K/mol
273.15 K, Crystal 2 | 156.87 J/K/mol and 156.99 J/K/mol and 160.74 J/K/mol
278.15 K, Crystal 2 | 157.96 J/K/mol and 159.66 J/K/mol and 163.65 J/K/mol
283.15 K, Crystal 2 | 160.99 J/K/mol and 162.69 J/K/mol and 166.8 J/K/mol
288.15 K, Crystal 2 | 163.78 J/K/mol and 165.84 J/K/mol and 169.46 J/K/mol
293.15 K, Crystal 2 | 166.32 J/K/mol and 169.11 J/K/mol and 171.4 J/K/mol
298.15 K, Crystal 2 | 169.83 J/K/mol and 171.89 J/K/mol and 174.79 J/K/mol
303.15 K, Crystal 2 | 172.14 J/K/mol and 174.44 J/K/mol and 179.03 J/K/mol
308.15 K, Crystal 2 | 173.95 J/K/mol and 177.34 J/K/mol and 182.3 J/K/mol
313.15 K, Crystal 2 | 175.89 J/K/mol and 180.01 J/K/mol and 185.33 J/K/mol
318.15 K, Crystal 2 | 180.37 J/K/mol and 182.55 J/K/mol and 188.36 J/K/mol
323.15 K, Crystal 2 | 185.82 J/K/mol and 185.1 J/K/mol and 191.63 J/K/mol
328.15 K, Crystal 2 | 189.46 J/K/mol and 187.4 J/K/mol and 194.41 J/K/mol
333.15 K, Crystal 2 | 192 J/K/mol and 189.82 J/K/mol and 197.08 J/K/mol
338.15 K, Crystal 2 | 195.52 J/K/mol and 192.24 J/K/mol and 200.35 J/K/mol
343.15 K, Crystal 2 | 198.06 J/K/mol and 194.3 J/K/mol and 203.14 J/K/mol
348.15 K, Crystal 2 | 200.6 J/K/mol and 196.97 J/K/mol and 206.04 J/K/mol
353.15 K, Crystal 2 | 203.15 J/K/mol and 199.15 J/K/mol and 209.19 J/K/mol
358.15 K, Crystal 2 | 201.94 J/K/mol and 211.86 J/K/mol and 205.93 J/K/mol
363.15 K, Crystal 2 | 209.93 J/K/mol and 203.99 J/K/mol and 214.4 J/K/mol
368.15 K, Crystal 2 | 212.96 J/K/mol and 206.78 J/K/mol and 217.31 J/K/mol
373.15 K, Crystal 2 | 215.26 J/K/mol and 209.45 J/K/mol and 219.61 J/K/mol
378.15 K, Crystal 2 | 218.17 J/K/mol and 212.35 J/K/mol and 222.64 J/K/mol
383.15 K, Crystal 2 | 221.8 J/K/mol and 214.9 J/K/mol and 226.15 J/K/mol
388.15 K, Crystal 2 | 227.37 J/K/mol and 217.93 J/K/mol and 229.78 J/K/mol
393.15 K, Crystal 2 | 229.31 J/K/mol and 221.32 J/K/mol and 233.54 J/K/mol
398.15 K, Crystal 2 | 234.28 J/K/mol and 225.68 J/K/mol and 237.9 J/K/mol
423.15 K, Crystal 1 | 367.05 J/K/mol and 386.4 J/K/mol and 376.37 J/K/mol
428.15 K, Crystal 1 | 368.14 J/K/mol and 390.4 J/K/mol and 378.19 J/K/mol
433.15 K, Crystal 1 | 369.95 J/K/mol and 393.79 J/K/mol and 383.04 J/K/mol
438.15 K, Crystal 1 | 396.7 J/K/mol and 389.58 J/K/mol and 371.65 J/K/mol
453.15 K, Liquid | 395.39 J/K/mol
458.15 K, Liquid | 396.6 J/K/mol
463.15 K, Liquid | 398.06 J/K/mol
468.15 K, Liquid | 400.36 J/K/mol
473.15 K, Liquid | 400.72 J/K/mol

[3]
Conditions | Normal melting temperature [°C] | Triple point temperature [K]
– | 171.42 | 409.2

CC(N)(CO)CO [2-amino-2-methyl-1,3-propanediol]
[1]
Conditions | Molar enthalpy of transition or fusion [kcal/mol]
Crystal 1 | 0.658
Crystal 2 | 5.63

[2]
Conditions | molar heat capacity at constant pressure
193.15 K, Crystal 3 | 118.91 J/K/mol and 107.45 J/K/mol and 121.86 J/K/mol
198.15 K, Crystal 3 | 121.86 J/K/mol and 119.23 J/K/mol and 108.93 J/K/mol
203.15 K, Crystal 3 | 123.22 J/K/mol and 119.86 J/K/mol and 110.29 J/K/mol
208.15 K, Crystal 3 | 119.54 J/K/mol and 111.13 J/K/mol and 124.91 J/K/mol
213.15 K, Crystal 3 | 126.27 J/K/mol and 119.96 J/K/mol and 112.18 J/K/mol
218.15 K, Crystal 3 | 127.85 J/K/mol and 121.12 J/K/mol and 113.66 J/K/mol
223.15 K, Crystal 3 | 129.11 J/K/mol and 122.28 J/K/mol and 115.97 J/K/mol
228.15 K, Crystal 3 | 130.37 J/K/mol and 123.22 J/K/mol and 118.39 J/K/mol
233.15 K, Crystal 3 | 132.06 J/K/mol and 124.17 J/K/mol and 121.02 J/K/mol
238.15 K, Crystal 3 | 133.84 J/K/mol and 125.85 J/K/mol and 124.17 J/K/mol
243.15 K, Crystal 3 | 135 J/K/mol and 129.32 J/K/mol and 126.8 J/K/mol
248.15 K, Crystal 3 | 136.37 J/K/mol and 130.9 J/K/mol and 128.8 J/K/mol
253.15 K, Crystal 3 | 130.69 J/K/mol and 135.32 J/K/mol and 132.16 J/K/mol
258.15 K, Crystal 3 | 131.32 J/K/mol and 134.05 J/K/mol and 134.16 J/K/mol
263.15 K, Crystal 3 | 133 J/K/mol and 134.05 J/K/mol and 136.37 J/K/mol
268.15 K, Crystal 3 | 134.16 J/K/mol and 135.84 J/K/mol and 137.52 J/K/mol
273.15 K, Crystal 3 | 134.58 J/K/mol and 137.42 J/K/mol and 138.78 J/K/mol
278.15 K, Crystal 3 | 136.79 J/K/mol and 139.1 J/K/mol and 140.47 J/K/mol
283.15 K, Crystal 3 | 139.63 J/K/mol and 140.68 J/K/mol and 142.67 J/K/mol
288.15 K, Crystal 3 | 142.04 J/K/mol and 143.83 J/K/mol
293.15 K, Crystal 3 | 143.62 J/K/mol and 144.46 J/K/mol and 145.83 J/K/mol
298.15 K, Crystal 3 | 145.62 J/K/mol and 146.46 J/K/mol and 148.25 J/K/mol
303.15 K, Crystal 3 | 147.51 J/K/mol and 148.46 J/K/mol and 151.61 J/K/mol
308.15 K, Crystal 3 | 148.88 J/K/mol and 150.03 J/K/mol and 153.82 J/K/mol
313.15 K, Crystal 3 | 150.67 J/K/mol and 151.82 J/K/mol and 154.56 J/K/mol
318.15 K, Crystal 3 | 151.51 J/K/mol and 154.35 J/K/mol and 155.5 J/K/mol
323.15 K, Crystal 3 | 152.66 J/K/mol and 156.87 J/K/mol and 158.97 J/K/mol
328.15 K, Crystal 3 | 154.98 J/K/mol and 159.5 J/K/mol and 164.54 J/K/mol
333.15 K, Crystal 3 | 157.6 J/K/mol and 162.34 J/K/mol and 168.33 J/K/mol
338.15 K, Crystal 3 | 160.02 J/K/mol and 165.49 J/K/mol and 171.9 J/K/mol
343.15 K, Crystal 3 | 163.07 J/K/mol and 168.33 J/K/mol and 176.74 J/K/mol
348.15 K, Crystal 3 | 186.94 J/K/mol and 175.58 J/K/mol and 198.92 J/K/mol
368.15 K, Crystal 1 | 297.97 J/K/mol and 303.43 J/K/mol and 287.35 J/K/mol
373.15 K, Crystal 1 | 299.96 J/K/mol and 302.7 J/K/mol and 289.98 J/K/mol
378.15 K, Crystal 1 | 306.17 J/K/mol and 309.95 J/K/mol and 295.76 J/K/mol
393.15 K, Liquid | 322.67 J/K/mol and 320.57 J/K/mol and 328.56 J/K/mol
398.15 K, Liquid | 327.41 J/K/mol and 323.41 J/K/mol and 339.71 J/K/mol
403.15 K, Liquid | 331.72 J/K/mol and 325.62 J/K/mol and 352.43 J/K/mol
408.15 K, Liquid | 327.83 J/K/mol and 335.19 J/K/mol
413.15 K, Liquid | 330.03 J/K/mol

[3]
Conditions | Normal melting temperature [°C] | Triple point temperature [K]
– | 110.93 | 355.66
